{"source": "paper PMC3852541", "about": "“Construction of an in vitro bypassed pyruvate decarboxylation pathway using thermostable enzyme modules and its application to N-acetylglutamate production” (Microbial Cell Factories, 2013)", "molecular_target": "T1, TtADDH (Thermus thermophilus, UniProt Q53WH9)", "T1 construct": "gene TTHB247; full-length from RIKEN T. thermophilus HB8 expression plasmid set; E. coli Rosetta2 (DE3), heat-treated lysate (70 C, 30 min)", "T1 sequence (Q53WH9 whole entry)": "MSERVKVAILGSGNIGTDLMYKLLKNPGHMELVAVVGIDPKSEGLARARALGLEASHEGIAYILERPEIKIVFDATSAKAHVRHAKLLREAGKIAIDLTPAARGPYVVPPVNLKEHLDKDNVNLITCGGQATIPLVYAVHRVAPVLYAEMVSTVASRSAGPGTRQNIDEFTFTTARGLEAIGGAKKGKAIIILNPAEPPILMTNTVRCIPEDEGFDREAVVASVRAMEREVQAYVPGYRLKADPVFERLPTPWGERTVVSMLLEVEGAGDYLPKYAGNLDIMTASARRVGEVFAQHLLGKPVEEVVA", "assay": "NAD+ reduction at […] nm; HPLC of products", "assay_type": "biochemical", "settings": "0.2 mM NAD+, 0.2 mM CoA, 0.2 mM acetaldehyde; 50 mM HEPES-NaOH pH 7.0, 100 mM KCl, 10 mM MgCl2, 50 C", "data": [{"smiles": "CC=O", "note": "[acetaldehyde]", "values": [{"measurement": "NAD+ reduction at 340 nm; HPLC of products", "value": "TtADDH could catalyze the oxidation of acetaldehyde in both CoA-dependent (acetyl-CoA-forming) and CoA-independent"}]}]}
